Experimental data published in US8952024B2, “Herbicidal pyrimidone derivatives” (E I du Pont de Nemours and Company, priority 2009, dated 2015).

Assays:
Type in all cases: in vivo
[1] = system: winter barley (Hordeum vulgare); test: Test B postemergence plant response
How it was run: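 Plants at the 1- to 4-leaf stage (2 to 18 cm tall), grown in pots of peat moss/vermiculite medium with wetting agent and starter nutrients, received postemergence applications of test chemicals. After 13 to 15 days in a greenhouse, injury was rated visually against untreated controls on a 0 (no effect) to 100 (complete control) scale.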

[2] = system: barnyardgrass (Echinochloa crus-galli); test: Test A pre-/postemergence plant response
How it was run: (§1)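 Visually rated 0–100 injury (100 = complete control) versus untreated plants, ~10 days in greenhouse. Application pre- (soil spray, loam/sand) and postemergence (2–10 cm, 1–2 leaf stage), same timepoint.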

[3] = system: pigweed (Amaranthus retroflexus); test: Test A pre-/postemergence plant response
How it was run: as §1

corn (Zea mays) = test: Test A pre-/postemergence plant response
How it was run: as §1

[4] = system: large crabgrass (Digitaria sanguinalis); test: Test A pre-/postemergence plant response
How it was run: as §1

[5] = system: wheat (Triticum aestivum); test: Test A pre-/postemergence plant response
How it was run: as §1

[6] = system: giant foxtail (Setaria faberii); test: Test A pre-/postemergence plant response
How it was run: as §1

[7] = system: morningglory (Ipomoea spp.); test: Test A pre-/postemergence plant response
How it was run: as §1

[8] = system: velvetleaf (Abutilon theophrasti); test: Test A pre-/postemergence plant response
How it was run: as §1

[9] = system: barnyardgrass (Echinochloa crus-galli); test: Test B flooded paddy test; conditions: for Plant response rating, Barnyardgrass: Flood (flooded paddy test), 13 to 15 days
How it was run: (§2)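 Post-flood paddy application: compounds are introduced into water 3 cm deep over the soil, reaching plants at the 2-leaf stage. The water level is maintained, and after 13–15 days under greenhouse conditions, response is judged by eye relative to controls, where 100 means complete control.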

[10] = system: umbrella sedge (Cyperus difformis); test: Test B flooded paddy test; conditions: for Plant response rating, Sedge, Umbrella: Flood (flooded paddy test), 13 to 15 days
How it was run: as §2

[11] = system: ducksalad (Heteranthera limosa); test: Test B flooded paddy test; conditions: for Plant response rating, Ducksalad: Flood (flooded paddy test), 13 to 15 days
How it was run: as §2

rice (Oryza sativa) = test: Test B flooded paddy test; conditions: for Plant response rating, Rice: Flood (flooded paddy test), 13 to 15 days
How it was run: as §2

[12] = Postemergence, 125 g ai/ha, visual injury, 0 to 100 scale (0 no effect, 100 complete control), approx. ten days
[13] = Postemergence, 500 g ai/ha, 0 to 100 scale, 0 = no effect, 100 = complete control, approx. ten days
[14] = Preemergence, 125 g ai/ha, 0 to 100 scale, 0 = no effect, 100 = complete control
[15] = Preemergence, 500 g ai/ha, visual injury, 0 to 100 scale (0 no effect, 100 complete control), approx. ten days
[16] = 250 g ai/ha, flooded paddy test, visual rating on 0 to 100 scale (0 no effect, 100 complete control) after 13 to 15 days
[17] = 31 g ai/ha, scale of 0 to 100 where 0 is no effect and 100 is complete control
[18] = 62 g ai/ha, scale of 0 to 100 where 0 is no effect and 100 is complete control
[19] = 125 g ai/ha, scale 0 to 100, 0 is no effect, 100 is complete control

Cc1cc(-n2c(-c3ccccc3)ncc(C(=O)C3=C(O)CCCC3=O)c2=O)ccc1F [Compound 53]
Plant response rating, Barley ([1]; 31 g ai/ha, postemergence, scale 0 to 100, 0 is no effect, 100 is complete control): 0
Plant response rating, Barley ([1]; Postemergence, 62 g ai/ha, scale 0 (no effect) to 100 (complete control), 13 to 15 days): 50
Plant response rating, Barley ([1]; Postemergence, 125 g ai/ha, visual rating after 13 to 15 days, scale 0 (no effect) to 100 (complete control)): 70
Plant response rating, Barley ([1]; Postemergence, 250 g ai/ha, scale 0 to 100 (0 no effect, 100 complete control)): 70
Barnyardgrass plant response rating [2, 12]: 90
Plant response rating, Barnyardgrass [2, 13]: 100
Plant response rating, Barnyardgrass [2, 14]: 40
Plant response rating, Barnyardgrass [2, 15]: 100
Pigweed plant response rating [3, 12]: 100
Plant response rating, Pigweed [3, 13]: 100
Plant response rating, Pigweed [3, 14]: 90
Plant response rating, Pigweed [3, 15]: 100
Corn plant response rating (corn (Zea mays); [12]): 0
Plant response rating, Corn (corn (Zea mays); [13]): 80
Plant response rating, Corn (corn (Zea mays); [14]): 0
Plant response rating, Corn (corn (Zea mays); [15]): 0
Crabgrass, Large plant response rating [4, 12]: 90
Plant response rating, Crabgrass, Large [4, 13]: 100
Plant response rating, Crabgrass, Large [4, 14]: 90
Plant response rating, Crabgrass, Large [4, 15]: 100
Wheat plant response rating [5, 12]: 30
Plant response rating, Wheat [5, 13]: 50
Plant response rating, Wheat [5, 14]: 0
Plant response rating, Wheat [5, 15]: 10
Foxtail, Giant plant response rating [6, 12]: 90
Plant response rating, Foxtail, Giant [6, 13]: 90
Plant response rating, Foxtail, Giant [6, 14]: 70
Plant response rating, Foxtail, Giant [6, 15]: 100
Morningglory plant response rating [7, 12]: 100
Plant response rating, Morningglory [7, 13]: 100
Plant response rating, Morningglory [7, 14]: 80
Plant response rating, Morningglory [7, 15]: 90
Velvetleaf plant response rating [8, 12]: 100
Plant response rating, Velvetleaf [8, 13]: 100
Plant response rating, Velvetleaf [8, 14]: 80
Plant response rating, Velvetleaf [8, 15]: 90
Plant response rating, Flood, Barnyardgrass [9, 16]: 75
Plant response rating, Barnyardgrass [9, 17]: 20
Plant response rating, Barnyardgrass [9, 18]: 40
Plant response rating, Barnyardgrass [9, 19]: 55
Plant response rating, Flood, Sedge, Umbrella [10, 16]: 90
Plant response rating, Sedge, Umbrella [10, 17]: 40
Plant response rating, Sedge, Umbrella [10, 18]: 85
Plant response rating, Sedge, Umbrella [10, 19]: 90
Plant response rating, Flood, Ducksalad [11, 16]: 75
Plant response rating, Ducksalad [11, 17]: 40
Plant response rating, Ducksalad [11, 18]: 65
Plant response rating, Ducksalad [11, 19]: 75
Plant response rating, Flood, Rice (rice (Oryza sativa); [16]): 85
Plant response rating, Rice (rice (Oryza sativa); [17]): 15
Plant response rating, Rice (rice (Oryza sativa); [18]): 20
Plant response rating, Rice (rice (Oryza sativa); [19]): 60
